Experimental findings from patent US6967196B1, “Sulfonamide compounds and uses thereof” (Bristol-Myers Squibb Company, priority 1999, dated 2005) are described below.

Where a name gives a salt, the structure may show the parent alone.

The subject of one assay is amyloid β production in transfected H4 (human neuroglioma) cells stably expressing APP constructs. Briefly: In vitro cell-based assay of inhibitors of amyloid β production (ELISA). The conditions noted are these: Homo sapiens, 16 h, transfected H4 cells stably expressing APP constructs; approximately 16 hours incubation; amyloid β in medium by ELISA; read-out: ACTIVITY (IC50, inhibition of amyloid β production). The gist of the method:
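Sandwich ELISA read-out: Aβ in conditioned medium captured via C-terminal epitope mAb, detected with N-terminus-specific rabbit polyclonal, quantified from a standard curve. Compounds 10-100 μM, ~16 h exposure. Active = ≥50% inhibition vs control without significant cytotoxicity; dose-response follows.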
Turning to `CN(C)CCCOc1ccccc1CN(c1ccccc1)S(=O)(=O)c1ccc([N+](=O)[O-])cc1` [Example 1083, N-{2-[3-(dimethylamino)propoxy]benzyl}-4-nitro-N-phenylbenzenesulfonamide], the 50% inhibitory concentration (IC50) is > 10000 nM.

Regarding `CN(C)CCCOc1ccccc1CN(c1ccccc1)S(=O)(=O)c1ccccc1[N+](=O)[O-]` [Example 1084, N-{2-[3-(dimethylamino)propoxy]benzyl}-2-nitro-N-phenylbenzenesulfonamide], the IC50 was > 10000 nM.

With `CN(C)CCCOc1ccccc1CN(c1ccccc1)S(=O)(=O)c1cccc2c(N(C)C)cccc12` [Example 1085, 5-(dimethylamino)-N-{2-[3-(dimethylamino)propoxy]benzyl}-N-phenyl-1-naphthalenesulfonamide], the IC50 is > 10000 nM.

With `CC(C)(O)C#Cc1ccccc1CN(c1ccccc1)S(=O)(=O)c1ccc(Cl)cc1` [Example 1086, 4-chloro-N-[2-(3-hydroxy-3-methyl-1-butynyl)benzyl]-N-phenylbenzenesulfonamide], the IC50 is > 10000 nM.

The same assay, now with this note: Homo sapiens, 16 h, transfected H4 cells stably expressing APP; approximately 16 hours incubation; amyloid β in medium by ELISA; read-out: ACTIVITY (IC50, inhibition of amyloid β production).
`O=S(=O)(c1ccc(Cl)cc1)n1c(-c2ccccc2OCCCN2CCCCC2)c(Cl)c2ccccc21` [Example 1043, 3-chloro-1-[(4-chlorophenyl)sulfonyl]-2-{2-[3-(1-piperidinyl)propoxy]phenyl}-1H-indole trifluoroacetate]: the IC50 was > 500 nM.

As for `C[C@H](c1ccccc1OCCCBr)N(c1cc(F)ccc1F)S(=O)(=O)c1ccc(Cl)cc1` [Example 1045, N-{(1R)-1-[2-(3-bromopropoxy)phenyl]ethyl}-4-chloro-N-(2,5-difluorophenyl)benzenesulfonamide], the IC50 was > 500 nM.

Regarding `CC(c1ccccc1OCCCn1ccnc1)N(c1cc(F)ccc1F)S(=O)(=O)c1ccc(Cl)cc1` (centres unmarked) [Example 1046, 4-chloro-N-(2,5-difluorophenyl)-N-(1-{2-[3-(1H-imidazol-1-yl)propoxy]phenyl}ethyl)benzenesulfonamide hydrochloride], the IC50 is > 500 nM.

As for `O=S(=O)(c1ccc(Cl)cc1)N(Cc1ccccc1C#CCn1ccnc1)c1cc(F)ccc1F` [Example 1051, 4-chloro-N-(2,5-difluorophenyl)-N-{2-[3-(1H-imidazol-1-yl)-1-propynyl]benzyl}benzenesulfonamide hydrochloride], the IC50 was > 500 nM.

As to `CC(c1ccccc1O)N(c1cc(F)ccc1F)S(=O)(=O)c1ccc(Cl)cc1` (centres unmarked) [Example 1052, 4-chloro-N-(2,5-difluorophenyl)-N-[1-(2-hydroxyphenyl)ethyl]benzenesulfonamide], the half-inhibitory concentration (IC50) is > 500 nM.

As to `O=S(=O)(c1ccc(Cl)cc1)N(Cc1ccccc1O)c1cc(F)ccc1F` [Example 1054, 4-chloro-N-(2,5-difluorophenyl)-N-(2-hydroxybenzyl)benzenesulfonamide], the IC50 was > 500 nM.

Turning to `C[C@H](c1ccccc1CCO)N(c1cc(F)ccc1F)S(=O)(=O)c1ccc(Cl)cc1` [Example 1055, 4-chloro-N-(2,5-difluorophenyl)-N-{(1R)-1-[2-(2-hydroxyethyl)phenyl]ethyl}benzenesulfonamide], the IC50 was > 500 nM.

For the molecule `C[C@H](c1ccccc1CCCn1ccnc1)N(c1cc(F)ccc1F)S(=O)(=O)c1ccc(Cl)cc1` [Example 1056, 4-chloro-N-(2,5-difluorophenyl)-N-((1R)-1-{2-[3-(1H-imidazol-1-yl)propyl]phenyl}ethyl)benzenesulfonamide hydrochloride], the IC50 is > 500 nM.

Consider `C[C@H](c1ccccc1OCCCN(C)C(=O)C(C)(C)C)N(c1cc(F)ccc1F)S(=O)(=O)c1ccc(Cl)cc1` [Example 1059, N-{3-[2-((1R)-1-{[(4-chlorophenyl)sulfonyl]-2,5-difluoroanilino}ethyl)phenoxy]propyl}-N,2,2-trimethylpropanamide], for which the IC50 was > 500 nM.

Take `C[C@H](c1ccccc1OCCCN1CCCCC1)N(c1cc(F)ccc1F)S(=O)(=O)c1ccc(Cl)cc1` [Example 1061, 4-chloro-N-(2,5-difluorophenyl)-N-((1R)-1-{2-[3-(1-piperidinyl)propoxy]phenyl}ethyl)benzenesulfonamide hydrochloride]: the IC50 is > 500 nM.

With `C[C@H](c1ccccc1OCCCN1CCCCC1)N(c1cc(Cl)ccc1CO)S(=O)(=O)c1ccc(Cl)cc1` [Example 1062, 4-chloro-N-[5-chloro-2-(hydroxymethyl)phenyl]-N-((1R)-1-{2-[3-(1-piperidinyl)propoxy]phenyl}ethyl)benzenesulfonamide hydrochloride], the IC50 was > 500 nM.

On to `C[C@H](c1ccc(F)cc1CCCO)N(c1cc(F)ccc1F)S(=O)(=O)c1ccc(Cl)cc1` [Example 1063, 4-chloro-N-(2,5-difluorophenyl)-N-((1R)-1-[4-fluoro-2-(3-hydroxypropyl)phenyl]ethyl}benzenesulfonamide], for which the IC50 is > 500 nM.

On to `C[C@H](c1ccccc1CCCn1cncn1)N(c1cc(F)ccc1F)S(=O)(=O)c1ccc(Cl)cc1` [Example 1066, 4-chloro-N-(2,5-difluorophenyl)-N-((1R)-1-{2-[3-(1H-1,2,4-triazol-1-yl)propyl]phenyl}ethyl)benzenesulfonamide], for which the IC50 is > 500 nM.

On to `C[C@H](c1ccc(F)cc1CCCC(=O)NN(C)C)N(c1cc(F)ccc1F)S(=O)(=O)c1ccc(Cl)cc1` [Example 1078, 4-chloro-N-(2,5-difluorophenyl)-N-((1R)-1-{2-[4-(2,2-dimethylhydrazino)-4-oxobutyl]-4-fluorophenyl}ethyl)benzenesulfonamide], for which the IC50 is > 500 nM.

With `O=S(=O)(c1ccc(Cl)cc1)N(Cc1ccccc1O)c1ccccc1` [Example 1081, 4-chloro-N-(2-hydroxybenzyl)-N-phenylbenzenesulfonamide], the IC50 is > 10000 nM.

Take `CN(C)CCCOc1ccccc1CN(c1ccccc1)S(C)(=O)=O` [Example 1082, N-{2-[3-(dimethylamino)propoxy]benzyl}-N-phenylmethanesulfonamide]: the IC50 was > 10000 nM.

Staying with this assay, now noted: transfected H4 cells stably expressing APP; approximately 16 hours incubation; amyloid β in medium by ELISA; hydrochloride; read-out: ACTIVITY (IC50, inhibition of amyloid β production).
Consider `C[C@@H](c1ccccc1OCCCn1ccnc1)N(c1cc(F)ccc1F)S(=O)(=O)c1ccc(Cl)cc1` [Example 1048, 4-chloro-N-(2,5-difluorophenyl)-N-((1S)-1-{2-[3-(1H-imidazol-1-yl)propoxy]phenyl}ethyl)benzenesulfonamide hydrochloride], for which the IC50 is > 500 nM.

The assay is the same for the next values; noted with them: transfected H4 cells stably expressing APP; approximately 16 hours incubation; amyloid β in medium by ELISA; read-out: ACTIVITY (IC50, inhibition of amyloid β production).
Regarding `CC(c1ccccc1OCCCn1ccnc1)N(c1cc(F)ccc1F)S(=O)(=O)c1ccc(Cl)cc1` (centres unmarked) [Example 1047, 4-chloro-N-(2,5-difluorophenyl)-N-(1-{2-[3-(1H-imidazol-1-yl)propoxy]phenyl}ethyl)benzenesulfonamide], the IC50 is > 500 nM.

Regarding `O=S(=O)(c1ccc(Cl)cc1)N(Cc1ccccc1OCC[S+]([O-])C1CCCCC1)c1cc(F)ccc1F` (centres unmarked) [Example 1050, 4-chloro-N-{2-[2-(cyclohexylsulfinyl)ethoxy]benzy}-N-(2,5-difluorophenyl)benzenesulfonamide], the half-inhibitory concentration (IC50) is > 500 nM.

For the molecule `C[C@H](c1ccc(F)cc1CCCC(=O)O)N(c1cc(F)ccc1F)S(=O)(=O)c1ccc(Cl)cc1` [Example 1067, 4-[2-((1R)-1-{[(4-chlorophenyl)sulfonyl]-2,5-difluoroanilino}ethyl)-5-fluorophenyl]butanoic acid], the IC50 is > 500 nM.

`C[C@H](c1ccc(F)cc1CCCC(=O)O)N(c1cc(F)ccc1F)S(=O)(=O)c1ccc(Cl)cc1` [Example 1068, 4-[2-((1R)-1-{[(4-chlorophenyl)sulfonyl]-2,5-difluoroanilino}ethyl)-5-fluorophenyl]butanoic acid]: the IC50 was > 500 nM.

In the case of `C[C@H](c1ccc(F)cc1CCCC(=O)O)N(c1cc(F)ccc1F)S(=O)(=O)c1ccc(Cl)cc1` [Example 1069, 4-[2-((1R)-1-{[(4-chlorophenyl)sulfonyl]-2,5-difluoroanilino}ethyl)-5-fluorophenyl]butanoic acid], the IC50 was > 500 nM.

With `C[C@H](c1ccc(F)cc1CCCCS(=O)(=O)N1CCS(=O)(=O)CC1)N(c1cc(F)ccc1F)S(=O)(=O)c1ccc(Cl)cc1` [Example 1071], the IC50 was > 500 nM.

Consider `C[C@H](c1ccc(F)cc1CCCC(=O)O)N(c1cc(F)ccc1F)S(=O)(=O)c1ccc(Cl)cc1` [Example 1072, 4-[2-((1R)-1-{[(4-chlorophenyl)sulfonyl]-2,5-difluoroanilino}ethyl)-5-fluorophenyl]butanoic acid], for which the IC50 is > 500 nM.

`C[C@H](c1ccc(F)cc1CCCC(=O)O)N(c1cc(F)ccc1F)S(=O)(=O)c1ccc(Cl)cc1` [Example 1073, 4-[2-((1R)-1-{[(4-chlorophenyl)sulfonyl]-2,5-difluoroanilino}ethyl)-5-fluorophenyl]butanoic acid]: the IC50 was > 500 nM.

On to `C[C@H](c1ccc(CCCCNS(C)(=O)=O)cc1)N(c1cc(F)ccc1F)S(=O)(=O)c1ccc(Cl)cc1` [Example 1074], for which the IC50 is > 500 nM.

Regarding `C[C@@H](c1ccc(F)cc1CCCC(=O)O)N(c1cc(F)ccc1F)S(=O)(=O)c1ccc(Cl)cc1` [Example 1076, 4-[2-((1S)-1-{[(4-chlorophenyl)sulfonyl]-2,5-difluoroanilino}ethyl)-5-fluorophenyl]butanoic acid], the IC50 was > 500 nM.

On to `C[C@H](c1ccc(F)cc1CCCC(=O)O)N(c1cc(F)ccc1F)S(=O)(=O)c1ccc(Cl)cc1` [Example 1080, 4-[2-((1R)-1-{[(4-chlorophenyl)sulfonyl]-2,5-difluoroanilino}ethyl)-5-fluorophenyl]butanoic acid], for which the IC50 was > 500 nM.

Broadly, the IC50 is the concentration that gives 50% inhibition.
